Laboratory results reported in PMC9238327, “RG100204, A Novel Aquaporin-9 Inhibitor, Reduces Septic Cardiomyopathy and Multiple Organ Failure in Murine Sepsis” (Frontiers in Immunology, 2022).
pIC50: −log10 of the molar value.

Legend:
Aquaporin 9 (AQP9) [1] = target: T1, Aquaporin 9 (AQP9) (Mus musculus, UniProt Q9JJJ3); test: water and glycerol permeability in CHO cells expressing mouse AQP9 (calcein fluorescence); assay type: cell-based
T1 sequence (Q9JJJ3 1-295): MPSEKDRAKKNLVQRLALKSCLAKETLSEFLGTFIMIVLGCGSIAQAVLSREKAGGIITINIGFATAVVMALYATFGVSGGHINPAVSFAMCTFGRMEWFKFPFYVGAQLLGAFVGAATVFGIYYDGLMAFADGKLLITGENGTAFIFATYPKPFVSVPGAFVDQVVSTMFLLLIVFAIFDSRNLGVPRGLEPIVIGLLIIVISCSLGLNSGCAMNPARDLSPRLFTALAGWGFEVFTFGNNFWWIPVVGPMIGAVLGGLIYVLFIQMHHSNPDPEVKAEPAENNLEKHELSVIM

Aquaporin 9 (AQP9) [2] = target: T1, Aquaporin 9 (AQP9); test: glycerol, water and H2O2 permeability in CHO cells expressing mouse AQP9 (calcein / HyPer-3 fluorescence); assay type: cell-based

O=C(CCc1ccc(O)cc1)c1c(O)cc(O)cc1O [Phlor, phloretin]
pIC50 (Aquaporin 9 (AQP9) [1]): ~6.14

CCn1c(SCC(=O)Nc2nnc(-c3ccc(OC(C)C)cc3)s2)nnc1C(C)C [RG, RG100204]
pIC50 (Aquaporin 9 (AQP9) [2]): ~7.12
